The source of these data is patent US20240197729A1, “ALK-5 Inhibitors and Uses Thereof” (Sumitomo Pharma Oncology, Inc., priority 2021, published 2024).

“Also recorded” adds a separate entry of the source.

The subject of one series is p-STAT3 (Tyr 705). Description: A549 xenograft assay, p-STAT3. The series is classed as in vivo, mice. The settings on record: tumors 4 h after dosing. The source says: To test compounds for inhibition of in vivo on-target activity (ALK5/TGF-bR1 inhibition) as well as potential Janus Kinase (JAK) signaling off-target activity, the A549 murine xenograft model was utilized. An ALK5 inhibitor (e.g., vactosertib) is expected to reduce the amount of the TGF-beta signaling molecule phospho-SMAD-2 (pSMAD2) in the A549 xenograft cells. The TGF-beta-mediated phosphorylation of SMAD2 in A549 cells takes place at amino acid residue four hundred and sixty-five and four hundred and sixty-seven (both are serine residues). A JAK inhibitor (e.g., ruxolitinib) is expected to reduce the phosphorylation of signal transducer and activator of transcription (STAT) proteins such as STAT3 at amino acid residue 705 (tyrosine).
At eight weeks of age, female athymic nude mice (purchased from Charles River) were injected with approximately 3.5 million A549 cells (ATCC, CCL-185). Specifically, cells were harvested and resuspended in plain RPMI media (no phenol red added) and Matrigel (Corning 356237) at a one to one ratio, and two hundred-microliters were injected into the right hind flank of each mouse. Tumors were measured every three days by caliper and as tumors reached an average of seventy-eighty millimeters cubed, mice were randomized in groups of three. All compounds were resuspended in 1-methyl-2-pyrrolidinone (Sigma 494496) (10%) plus 20% Solutol (Sigma 42966) in water (90%). Vactosertib and ruxolitinib were included as controls as ALK5 signaling inhibitor and JAK signaling inhibitor, respectively. Both controls were given at seventy-five milligrams per kilogram to three mice. The drug suspensions were sonicated for fifteen minutes to generate a fine particle suspension before being given to the mice. Mice were dosed (per oral gavage) with drug at one hundred, seventy-five, fifty, or ten milligrams per kilogram, with three mice per group. A vehicle control group with three mice was used to establish the baseline level of phospho-SMAD-2 in the tumor xenograft.
Four hours after drug administration, tumors were harvested, snap frozen and stored at negative eighty degrees Celsius until further processing. The phospho-SMAD-2 levels were determined using the Bio-Plex Pro™ Phospho-Smad2 (Ser465/Ser467) Set (BioRad 171V50019M). The phospho STAT3 levels were determined using the bead/antibody set from the MILLIPLEXMAP STAT Cell Signaling Magnetic Bead 5-Plex Kit (Millipore 48-610MAG). Both phospho SMAD-2 levels and phospho STAT3 levels were normalized to ß-Tubulin (MILLIPLEX MAP ß-Tubulin Total Magnetic Bead MAPmate™, Millipore 46-713MAG) or GAPDH (MILLIPLEX MAP GAPDH Total Magnetic Bead MAPmate™, Millipore 46-667MAG) levels from each sample. All analytes were analyzed in a multiplex fashion with the Bio-Plex Pro Cell Signaling Reagent Kit (BioRad 171304006M). Briefly, frozen tumor (fifteen to thirty milligrams) was lysed in 100 μl lysis buffer, processed in bead mill tube, and centrifuged. The resulting lysate was used at 1:50 dilution for the assay according to the manufacturer's instructions. Bead suspension was analyzed using the Luminex system (MAGPIX).

The subject of another series is p-SMAD2 (Ser465/Ser467). Description: Longitudinal PK/PD analysis of p-SMAD2 in A549 xenograft mouse model. The series is classed as in vivo, mice. The following applies: for percent p-SMAD2 levels compared to vehicle group: 50 mg/kg per oral gavage, normalized to GAPDH; for time of peak p-SMAD2 suppression post dosing / drug tumor and plasma exposure in vivo: single dose 50 mg/kg per oral gavage; for drug tumor and plasma exposure in vivo: A549 xenograft mice. On the procedure: Accordingly, a longitudinal, twenty-two-hour, one-dose study was performed using Compound 04 and the commercially available ALK5 inhibitor vactosertib in an A549 xenograft mouse model. In this study, p-SMAD2 (Ser465/Ser467) and a housekeeping gene (GAPDH) were measured at ten timepoints from zero (established using vehicle-treated animals) up to twenty-two hours post dose for a single drug dose of fifty milligrams per kilogram per subject (three subjects per dosing group).
For this study, xenografts were prepared and implanted in mice as follows. At five weeks of age, female athymic nude mice (purchased from Charles River) were injected with approximately 2.1 million A549 cells (ATCC, CCL-185). Cells were harvested and resuspended in plain RPMI media (no phenol red added) and Matrigel (Corning 356237) at a one to one ratio, and two hundred-microliters of the cell suspension were injected into the right hind flank of each mouse. Tumors were measured every three days by caliper, and as tumors reached an average of seventy-eighty millimeters cubed, mice were randomized in groups of three subjects. Each of the test compounds (vactosertib, Compound 04) was resuspended in 1-methyl-2-pyrrolidinone (Sigma, 494496) (10%) plus 20% Solutol (Sigma 42966) in water (90%). The drug suspensions were sonicated for fifteen minutes to generate a fine particle suspension before being given to the test subjects. Subjects were dosed (per oral gavage) with the suspension. A vehicle control group with three mice was used to establish the baseline and timepoint zero of phospho-SMAD-2 in the tumor xenograft. The test compounds were administered to the respective subject groups at fifty milligrams per kilogram.
Samples were obtained post administration of test compounds at 30 minutes, one hour, two hours, four hours, six hours, eight hours, twelve hours, sixteen hours and twenty-two hours. Tumors were harvested, snap frozen and stored at negative eighty degrees Celsius until further processing. Plasma was collected from all animals by collecting whole blood via cardiac puncture, followed by centrifugation in tubes containing EDTA (BD, microtainer tubes, 365974). A group of three mice receiving vehicle only served as the zero timepoint for both drug groups. The phospho SMAD-2 levels were determined using the Bio-Plex Pro™ Phospho-Smad2 (Ser465/Ser467) Set (BioRad 171V50019M). The phospho SMAD-2 levels were normalized to GAPDH (MILLIPLEX MAP GAPDH Total Magnetic Bead MAPmate™, Millipore 46-667MAG) levels from each sample. All analytes were analyzed in a multiplex fashion with the Bio-Plex Pro Cell Signaling Reagent Kit (BioRad 171304006M). Frozen tumor samples (fifteen to thirty milligrams) were lysed in 100 μl lysis buffer, processed in a bead mill tube, and centrifuged. The resulting lysate was used at 1:50 dilution for the assay according to the manufacturer's instructions. Bead suspension was analyzed using the Luminex system (MAGPIX).
The study described in Example 8 was expanded to include Compound 01. Accordingly, using the same procedure for preparing test subjects and the ability of compounds tested to suppress TGF-beta signaling over time (as described in Example 8), a longitudinal, twenty-two-hour, one-dose study was performed using Compound 01, and the data were plotted alongside data obtained in Example 8 from Compound 04 and commercially available ALK5 inhibitor vactosertib, which were replotted in accordance with Example 10. For this expansion of the longitudinal study, p-SMAD2 (Ser465/Ser467) and housekeeping gene GAPDH were measured at ten timepoints from zero up to twenty-two hours post a single drug dose of fifty milligrams per kilogram per animal (three animals per group). A vehicle only treatment group of three mice was used to establish the baseline levels of p-SMAD2 in A549 xenograft tumor samples.
As in Example 8, xenografts were prepared and implanted in mice as follows. […]

Take `Cc1nn(CC(F)(F)F)cc1Nc1cc(Nc2cnnc3c(C)cccc23)ccn1` [Compound 01, N2-[3-methyl-1-(2,2,2-trifluoroethyl)-1H-pyrazol-4-yl]-N4-(8-methylcinnolin-4-yl)pyridine-2,4-diamine]: the “Average % p-STAT3 (Tyr 705) of vehicle” value worked out at 92% with p-STAT3 (Tyr 705) (10 mg/kg per oral gavage), 70% with p-STAT3 (Tyr 705) (50 mg/kg per oral gavage), 66% in the series with p-STAT3 (Tyr 705) (75 mg/kg per oral gavage) and 76% in the series on p-STAT3 (Tyr 705) (100 mg/kg per oral gavage). For the same compound, the “percent p-SMAD2 levels compared to vehicle group” value (“percent p-SMAD2 levels” below) in the series with p-SMAD2 (Ser465/Ser467) (0.5 h post dosing) is 57%; in the series with p-SMAD2 (Ser465/Ser467) (1 h post dosing), 37%; with p-SMAD2 (Ser465/Ser467) (2 h post dosing) it was 24%; in the series on p-SMAD2 (Ser465/Ser467) (4 h post dosing) it was 30%; in the series with p-SMAD2 (Ser465/Ser467) (6 h post dosing) it was 59%; in the series with p-SMAD2 (Ser465/Ser467) (8 h post dosing) it was 76%. In addition, the “percent p-SMAD2 levels” value with p-SMAD2 (Ser465/Ser467) (12 h post dosing) stood at 89.2%; with p-SMAD2 (Ser465/Ser467) (16 h post dosing) it was 82.1%; with p-SMAD2 (Ser465/Ser467) (22 h post dosing), 86.5%. For the same compound, the “time of peak p-SMAD2 suppression post dosing” value in the series on p-SMAD2 (Ser465/Ser467) stood at 2 h. Also, the “drug tumor and plasma exposure in vivo” value in the series with p-SMAD2 (Ser465/Ser467) was “longer drug tumor and plasma exposure in vivo”.

Consider `Cc1cccc2c(Nc3ccnc(Nc4ccc(N5CCOCC5)cc4)c3)cnnc12` [Compound 05, N4-(8-methylcinnolin-4-yl)-N2-[4-(morpholin-4-yl)phenyl]pyridine-2,4-diamine], for which the “Average % p-STAT3 (Tyr 705) of vehicle” value with p-STAT3 (Tyr 705) (10 mg/kg per oral gavage) was 107%; with p-STAT3 (Tyr 705) (50 mg/kg per oral gavage) it was 85%; in the series on p-STAT3 (Tyr 705) (75 mg/kg per oral gavage), 77%; in the series with p-STAT3 (Tyr 705) (100 mg/kg per oral gavage), 93%.

As for `Cc1cccc(-c2[nH]c(CNc3ccccc3F)nc2-c2ccc3ncnn3c2)n1` [Vactosertib, vactosertib, reference compound], the “Average % p-STAT3 (Tyr 705) of vehicle” value with p-STAT3 (Tyr 705) (75 mg/kg per oral gavage) amounted to 63%. Also, the “percent p-SMAD2 levels” value with p-SMAD2 (Ser465/Ser467) (0.5 h post dosing) turned out to be 53%; in the series with p-SMAD2 (Ser465/Ser467) (1 h post dosing) it was 14%; in the series on p-SMAD2 (Ser465/Ser467) (2 h post dosing) it was 21%; with p-SMAD2 (Ser465/Ser467) (4 h post dosing), 32%; in the series on p-SMAD2 (Ser465/Ser467) (6 h post dosing) it was 67%; in the series on p-SMAD2 (Ser465/Ser467) (8 h post dosing) it was 65%. The “percent p-SMAD2 levels” value was 89.1% with p-SMAD2 (Ser465/Ser467) (12 h post dosing), 74.6% in the series with p-SMAD2 (Ser465/Ser467) (16 h post dosing) and 101.1% with p-SMAD2 (Ser465/Ser467) (22 h post dosing). In the series with p-SMAD2 (Ser465/Ser467) (50 mg/kg), the “drug tumor and plasma exposure in vivo” value is listed as “quickly cleared from the system; also recorded: quickly cleared from the mice”.

As to `Clc1cccc2c(Nc3ccnc(Nc4cccc(N5CCOCC5)c4)c3)cnnc12` [Compound 04, N4-(8-chlorocinnolin-4-yl)-N2-[3-(morpholin-4-yl)phenyl]pyridine-2,4-diamine], the “Average % p-STAT3 (Tyr 705) of vehicle” value in the series with p-STAT3 (Tyr 705) (10 mg/kg per oral gavage) was 88%; in the series with p-STAT3 (Tyr 705) (50 mg/kg per oral gavage) it was 73%; in the series on p-STAT3 (Tyr 705) (75 mg/kg per oral gavage), 59%; in the series on p-STAT3 (Tyr 705) (100 mg/kg per oral gavage) it was 97%. For the same compound, the “percent p-SMAD2 levels” value worked out at 55% in the series on p-SMAD2 (Ser465/Ser467) (0.5 h post dosing); 24% in the series on p-SMAD2 (Ser465/Ser467) (1 h post dosing); 14% in the series with p-SMAD2 (Ser465/Ser467) (4 h post dosing); 22% in the series on p-SMAD2 (Ser465/Ser467) (6 h post dosing); 57% in the series with p-SMAD2 (Ser465/Ser467) (8 h post dosing); 95.0% in the series on p-SMAD2 (Ser465/Ser467) (12 h post dosing). In addition, the “percent p-SMAD2 levels” value in the series with p-SMAD2 (Ser465/Ser467) (16 h post dosing) worked out at 81.9%; in the series with p-SMAD2 (Ser465/Ser467) (22 h post dosing), 91.4%. For the same compound, the “time of peak p-SMAD2 suppression post dosing” value with p-SMAD2 (Ser465/Ser467) was “two”. For the same compound, the “drug tumor and plasma exposure in vivo” value with p-SMAD2 (Ser465/Ser467) (50 mg/kg) is “longer drug tumor and plasma exposure in vivo than vactosertib”; in the series with p-SMAD2 (Ser465/Ser467) (listed as compound 04, 50 mg/kg), “longer drug tumor and plasma exposure in vivo”.
